Test results reported in US6921757B2, “Organic compounds” (Novartis AG, priority 2000, dated 2005).
Read-outs that look alike come from different tables or passages of the source.

Tests used:
[1] = tested on: TNF-alpha synthesis and release from the human macrophage cell line U937; experiment: Inhibition of TNF-alpha synthesis and release from the human macrophage cell line U937; format: cell-based
Excerpt: Accordingly, the invention also provides a compound of formula I for use as a pharmaceutical. […] Methods (1997) 202:49-57; Renzi et al, Am. Rev. Respir. Dis. (1993) 148:932-939; Tsuyuki et al., J. Clin. Invest. (1995) 96:2924-2931; and Cemadas et al (1999) Am. J. Respir. Cell Mol. Biol. 20:1-8.

[2] = tested on: lung eosinophilia; experiment: Inhibition of lung eosinophilia in ovalbumin-sensitised Brown Norway rats; format: in vivo; conditions: 3 mg/kg intratracheally as dry powder lactose blend, 24 h before ovalbumin aerosol; lung lavage 24 h after challenge
Procedure: In vivo anti-inflammatory activity may be assessed by inhibition of lung eosinophilia in rats using a modification of the method of Szarka et al op cit. Male Brown Norway rats (approximately 200 g) are sensitised on day 1 with an intraperitonial injection of 0.5 ml of a mixture of ovalbumin (0.02 mg/ml) and aluminium hydroxide (20 mg/ml), followed by Acellulare pertussis adsorbat vaccine (0.2 ml of a 1:4 dilution with 0.9% saline). The procedure is repeated on day 15 and day 21. […] The lungs are removed and after lavage with Hank's solution (balanced salt solution, 100 ml; EDTA 100 mM, 100 ml; HPES 1M, 10 ml, water 1000 ml), eosinophil numbers in the recovered solution are quantified directly using a Corbas Helios 5Diff apparatus (Hoffman-LaRoche).

[3] = Systemic side effects: reduction in thymus weight on chronic administration to rats; format: in vivo, Sprague-Dawley rats
Procedure: Systemic side effects may be assessed by reduction in thymus weight on chronic administration to rats. Male Sprague-Dawley rats (approximately 250 g) are treated once daily for 4 days with the test compound administered at a dose of 1 mg/kg either orally as a hydroxypropyl cellulose suspension or intratracheally under isoflurane anaesthesia as a dry powder lactose blend. On day 5 the rats are sacrificed, autopsy is performed and the weight of the thymus is determined.

[4] = Homo sapiens, U-937, read-out: IC50 inhibition of TNF-alpha synthesis and release

Row | Structure (SMILES) | IC50 [1, 4] | reduction in eosinophil count compared to vehicle control [2] | IC50 ([1]; U937 human macrophage cell line, read-out: IC50 inhibition of TNF-alpha synthesis and release) | reduction in thymus weight compared to vehicle control when dosed intratracheally ([3]; 1 mg/kg intratracheally once daily for 4 days, dry powder lactose blend) | reduction in thymus weight compared to vehicle control when dosed orally ([3]; 1 mg/kg orally once daily for 4 days, hydroxypropyl cellulose suspension)
1 | COC(=O)[C@@]1(OC(=O)c2sccc2C)[C@H](C)CC2C3C[C@H](F)C4=CC(=O)C=C[C@]4(C)[C@@]3(Cl)[C@@H](O)C[C@@]21C (stereo partly drawn) [Example 26, 3-methylthiophene-2-carboxylic acid (6S,9R,10S,11S,13S,16R,17R)-9-chloro-6-fluoro-11-hydroxy-17-methoxycarbonyl-10,13,16-trimethyl-3-oxo-6,7,8,9,10,11,12,13,14,15,16,17-dodecahydro-3H-cyclopenta[a]phenanthren-17-yl ester] | 0.024 nM | 63% |  |  | 
2 | COC(=O)[C@@]1(OC(=O)C2CC2)[C@@H](C)CC2C3C[C@H](F)C4=CC(=O)C=C[C@]4(C)[C@@]3(Cl)[C@@H](O)C[C@@]21C (stereo partly drawn) [Example 34, (6S,9R,10S,11S,13S,16S,17R)-9-chloro-17-cyclopropanecarbonyloxy-6-fluoro-11-hydroxy-10,13,16-trimethyl-3-oxo-6,7,8,9,10,11,12,13,14,15,16,17-dodecahydro-3H-cyclopenta[a]phenanthrene-17-carboxylic acid methyl ester] | 0.1 nM | 90% |  |  | 
3 | COC(=O)[C@@]1(OC(=O)c2cnc(C)cn2)[C@H](C)CC2C3C[C@H](F)C4=CC(=O)C=C[C@]4(C)[C@@]3(Cl)[C@@H](O)C[C@@]21C (some centres unmarked) [Example 99] |  | 48% | 0.106 nM | 70% | 0%
